Values quoted from earlier work, collected in patent US20080207644A1, “Therapeutic materials and methods” (priority 2006, published 2008).

Assays:
cancers = details: for mouth sores as side effect: human studies; for results in human studies: single agents or combinations, treatment of a variety of cancers
[1] = 30 mg/kg oral
[2] = system: a variety of malignancies; details: intravenous 0.7 to 1.3 mg/m^2/dose biweekly
[3] = oral doses of 10-100 mg/kg

SMILES | mouth sores as side effect (cancers) | results in human studies (cancers) | also measured
CO[C@H]1C[C@@H]2CC[C@@H](C)[C@@](O)(O2)C(=O)C(=O)N2CCCC[C@H]2C(=O)O[C@H]([C@H](C)C[C@@H]2CC[C@@H](OCCO)[C@H](OC)C2)CC(=O)[C@H](C)/C=C(\C)[C@@H](O)[C@@H](OC)C(=O)[C@H](C)C[C@H](C)/C=C/C=C/C=C/1C [everolimus] | dose limiting toxicity | positive results | 
COc1cccc2nc(-c3cccs3)nc(NN3C(=O)CC(C)C3=O)c12 (stereo not drawn) [SPC-839] |  |  | oral efficacy in a rat model [1]: oral efficacy
CC(C)C[C@H](NC(=O)[C@H](Cc1ccccc1)NC(=O)c1cnccn1)B(O)O [Velcade] |  |  | activity against malignancies [2]: activities against a variety of malignancies
CO[C@H]1C[C@@H]2CC[C@@H](C)[C@@](O)(O2)C(=O)C(=O)N2CCCC[C@H]2C(=O)O[C@H]([C@H](C)C[C@@H]2CC[C@@H](OP(C)(C)=O)[C@H](OC)C2)CC(=O)[C@H](C)/C=C(\C)[C@@H](O)[C@@H](OC)C(=O)[C@H](C)C[C@H](C)/C=C/C=C/C=C/1C [AP23573] | dose limiting toxicity | positive results | 
CO[C@H]1C[C@@H]2CC[C@@H](C)[C@@](O)(O2)C(=O)C(=O)N2CCCC[C@H]2C(=O)O[C@H]([C@H](C)C[C@@H]2CC[C@@H](OC(=O)C(C)(CO)CO)[C@H](OC)C2)CC(=O)[C@H](C)/C=C(\C)[C@@H](O)[C@@H](OC)C(=O)[C@H](C)C[C@H](C)/C=C/C=C/C=C/1C [temsirolimus] | dose limiting toxicity | positive results | 
Cc1ccc2nc(NCCN)c3ncc(C)n3c2c1 [BMS-345541] |  |  | efficacy in mouse studies [3]: effective
